These results are taken from patent publication US7405081B2, “Methods and kits for identifying scavengers of reactive oxygen species (ROS)” (priority 2001, dated 2008).

Data set [1] relates to katA-gfp fusion. The conditions noted are these: AG6 in MG/L, 30-120 μM H2O2, 2 hours.
Method: To determine if H2O2 can induce the katA expression, AG6 was grown in MG/L liquid medium overnight at 28° C. The cells were harvested and resuspended in fresh MG/L liquid medium to a final concentration of OD600=0.5. Aliquots (2 ml) of the cultures were transferred into sterile tubes, and H2O2 was added to the tubes to final concentrations of 30 μM, 60 μM and 120 μM. The cell suspensions were incubated at 28° C. for 2 hours. Then 1 ml of each cell suspension was centrifuged, washed and resuspended in the Laemmli (1970) sample buffer, and subjected to Western blot as described later.
To determine whether the expression of katA can be induced by H2O2, like some of other bacterial catalases (Loewen, 1997), AG6 was treated with low concentrations of H2O2 (30-120 μM) in liquid MG/L medium and the katA-gfp expression levels were then determined.
A short description of data set [2]: Catalase activity assay in whole bacterial cells (Amplex Red Catalase Assay Kit). In kind it is cell-based, Agrobacterium tumefaciens. The conditions noted are these: whole cells grown on IB plates. The procedure:
Catalase activity assay: The catalase activity in whole bacterial cells was determined as previously described (Maciver and Hansen, 1996) except using the Amplex Red Catalase Assay Kit (Molecular Probes Inc., USA). Briefly, A. tumefaciens strains were grown at 28° C. for 24 hr on IB plates. The cells were harvested, washed and resuspended at OD600=1.0 in 50 mM phosphate-buffer (pH 7.4). For the strains with the wild type katA [A348, AG6 (pXQ9), and AG6 (pXQ23)], 100 μl cell suspension of each sample was incubated with 50 μl 40 μM H2O2 at time intervals of 0, 30 sec, 1 min and 2 min.
For the strains with the katA mutants [AG6, AG6 (pXQ11), AG6 (pXQ22), AG6 (pXQ26) and AG6 (pXQ27)], 100 μl cell suspension of each sample was incubated with 50 μl 5 μM H2O2 at time intervals of 0, 1, 2, and up to 6 min. The amount of H2O2 left after degradation by the bacterial catalase was then determined by adding 50 μl Amplex Red reagent N-acetyl-3, 7-dihydroxyphenoxazine at 25 μM and 0.4 U/ml horse radish peroxidase provided by the kit. The fluorometric assay was conducted by the same procedure as described above for the measurement of intracellular H2O2. The cell suspensions without the added H2O2 were used as the blank. Solutions of crystalline bovine catalase (Sigma) were used to standardize this assay.
The catalase activity in whole bacterial cells was determined as described above in Example 1 (“Catalase activity assay”).

The subject of data set [3] is aopB-gfp. Briefly: aopB-gfp expression in strain CGI1 (specificity control). The data set is classed as cell-based, Agrobacterium tumefaciens. Conditions: pXQ9 introduced into CGI1, IB (pH 5.5). The procedure: To study the katA gene expression in different genetic backgrounds, A. tumefaciens strains A348, AG6, AG6 (pSW172), AG6 (pXQ9), A613, CGI1 and CGI1 (pXQ9) were grown at 28° C. for 24 hours on IB (pH 5.5) agar plates. The fluorescence of each strain was determined as described above.
To determine if katA could specifically repress katA-gfp, pXQ9 was introduced into a different mini-Tn5 transposon mutant strain CGI1, which contained the transposon insertion at a chromosomal gene aopB and could produce bright green fluorescence under UV light.

Data set [4] is described as follows: Peroxidase activity staining of cell extracts. In kind it is biochemical, Agrobacterium tumefaciens. The conditions noted are these: same cell extracts.
Data set [5] deals with katA-gfp fusion in AG6 cells. Briefly: Extracellular catalase added to IB plates, GFP expression of AG6 cells. In kind it is cell-based, Agrobacterium tumefaciens. The conditions noted are these: 1 or 5 microgram per ml in IB plates. How it is done:
Catalase purchased from Sigma was added into IB plates at a final concentration of 1 or 5 microgram per ml. AG6 cells (carrying the katA-gfp fusion) were then grown on the IB plate. […] To ensure that the catalase in the IB medium was still active, hydrogen peroxide was dropped onto the catalase-containing plate. Air bubbles were instantly visible in the catalase-containing plate; no air bubble was found in the control catalase-free IB plate. […] Therefore, it can be concluded that extracellular catalase could not remove the intracellular hydrogen peroxide.

Marks after values point to notes of the source that are not given here.

In the case of `OO` [H2O2, hydrogen peroxide], in data set [1], the “katA-gfp expression levels in presence of H2O2” value is “increased significantly”.
For the molecule “KatA: Agrobacterium tumefaciens catalase encoded by katA; putative protein of 723 amino acids, 78.7 kDa”, the Catalase activity was 77145.5 ± 440.3 unit/10^8 cells in data set [2] (gene on plasmid in AG6, driven by katA and lac promoters (pXQ23, pXQ26, pXQ27)); 3997.3 ± 459.1 unit/10^8 cells in data set [2] (gene on plasmid in AG6, driven by katA promoter (pXQ9, pXQ11, pXQ22)); 175.2 ± 20.2^c unit/10^8 cells in data set [2] (strain AG6 (katA disrupted by mini-Tn5)); 1486.2 ± 149.5 unit/10^8 cells in data set [2] (wild type strain A348). In data set [3], the “Repression of aopB-gfp expression” value is on record as “did not repress”. Moreover, the “Peroxidase activity associated with the catalase activity bands” value in data set [4] is “no peroxidase activity”.
On to Catalase, for which, in data set [5], the “Repression of katA-gfp expression by catalase added to the medium” value is “did not repress katA-gfp expression”.
